US20160185717A1, “COMPOUNDS WITH ANTIBACTERIAL ACTIVITY” (FUNDACIÓN MEDINA. CENTRO DE EXCELENCIA EN INVESTIGACIÓN DE …, priority 2013, published 2016)
Converted amounts (≈) assume the structure as drawn.

How the values were obtained:
P. aeruginosa ATCC 27853 = experiment: Broth microdilution MIC; format: cell-based, Pseudomonas aeruginosa; conditions: P. aeruginosa ATCC 27853, wild type
Method: (§1) Antibacterial activity of compounds MDN-0057, MDN-0058, MDN-0059 and MDN-0060 was evaluated using the broth microdilution methodology. This method is used to determine minimum inhibitory concentrations (MICs) which are defined as the lowest concentration of an antimicrobial compound that will inhibit the visible growth of a microorganism after overnight incubation.
(§2) In the microbroth dilution assay, microorganisms were selected by streaking bacteria culture from a cryovial into Mueller Hinton II (MHII) agar plate(s) and incubate overnight at 37° C. Thereafter, 3 to 5 characteristic fresh colonies were selected and suspended in 25 mL of MHII broth media for 2 hours shaking at 220 rpm. The 2 hour broth cultures were adjusted to an optical density of 0.111 at 660 nm and then diluted to 1:100 in order to obtain assay inoculums.
(§3) The four compounds evaluated were serially diluted in 100% DMSO with a dilution factor of 2 to provide 10 compound concentrations starting at 8 mg/mL.
(§4) For the assays, 90 μL/well of the appropriated diluted inoculum were mixed with 1.6 μL/well of each compound concentration and 8.4 μL/well of MHII broth media, resulting in an additional dilution of these compounds to yield concentrations in the assay wells from 128 μg/mL to 0.25 μg/mL. After that, the assay plates were read in a Tecan Ultraevolution spectrophotometer at 612 nm for T0 (zero time). Then, the plates were statically incubated at 37° C. for 20 hours. After incubation, they were shaken in a DPC Micromix-5 and read again for Tf (final time). Percentage of growth inhibition was calculated using the following normalization:
(§5) % Inhibition=[1-[(TfSample-T0Sample)−(TfBlank-T0blank)/(TfGrowth-T0Growth)−(TfBlank-T0blank)]×100. • Where, • T0 Sample=the absorbance of the strain growth in the presence of sample measured at zero time (before incubation). • Tf Sample=the absorbance of the strain growth in the presence of sample measured at final time (after incubation) • T0 Growth=the absorbance of the strain growth in the absence of sample measured at zero time (before incubation). • Tf Growth=the absorbance of the strain growth in the absence of sample measured at final time (after incubation). • T0 Blank=the absorbance of the broth medium (blank) measured at zero time (before incubation). • Tf Blank=the absorbance of the broth medium (blank) measured at final time (after incubation).

A. baumannii 5973 = experiment: Broth microdilution MIC; format: cell-based, Acinetobacter baumannii; conditions: A. baumannii 5973, Clinical isolate
Method: as §1, §2, §3, §4, §5

P. aeruginosa 839 = experiment: Broth microdilution MIC; format: cell-based, Pseudomonas aeruginosa; conditions: P. aeruginosa 839, ΔMexAB-OprM
Method: as §1, §2, §3, §4, §5

E. coli 219 = experiment: Broth microdilution MIC; format: cell-based, Escherichia coli; conditions: E. coli 219, ΔAcrAB::Tn903kan
Method: as §1, §2, §3, §4, §5

E. coli ATCC 25922 = experiment: Broth microdilution MIC; format: cell-based, Escherichia coli; conditions: E. coli ATCC 25922, wild type
Method: as §1, §2, §3, §4, §5

A. baumannii 2443 = experiment: Broth microdilution MIC; format: cell-based, Acinetobacter baumannii; conditions: A. baumannii 2443, Clinical isolate
Method: as §1, §2, §3, §4, §5

A. baumannii 2444 = experiment: Broth microdilution MIC; format: cell-based, Acinetobacter baumannii; conditions: A. baumannii 2444, ΔadellJK
Method: as §1, §2, §3, §4, §5

A. baumannii 2446 = experiment: Broth microdilution MIC; format: cell-based, Acinetobacter baumannii; conditions: A. baumannii 2446, ΔadeABC, ΔadellJK
Method: as §1, §2, §3, §4, §5

A. baumannii 2445 = experiment: Broth microdilution MIC; format: cell-based, Acinetobacter baumannii; conditions: A. baumannii 2445, ΔadeABC
Method: as §1, §2, §3, §4, §5

A. baumannii ATCC 19606 = experiment: Broth microdilution MIC; format: cell-based, Acinetobacter baumannii; conditions: A. baumannii ATCC 19606, Clinical isolate
Method: as §1, §2, §3, §4, §5

[1] = system: A. baumannii ATCC BAA-747; experiment: Broth microdilution MIC; format: cell-based, Acinetobacter baumannii; conditions: A. baumannii ATCC BAA-747, Clinical isolate
Method: as §1, §2, §3, §4, §5

K. pneumoniae 847 = experiment: Broth microdilution MIC; format: cell-based, Klebsiella pneumoniae; conditions: K. pneumoniae 847, Clinical isolate
Method: as §1, §2, §3, §4, §5

K. pneumoniae 21 = experiment: Broth microdilution MIC; format: cell-based, Klebsiella pneumoniae; conditions: K. pneumoniae 21, permeable strain
Method: as §1, §2, §3, §4, §5

[2] = system: Escherichia coli acrAB::Tn903 (CB-219); experiment: Micro RI (resistance) bioassay on E. coli CB-219; format: cell-based
Method: The frequency of resistance to MDN-0057 and MDN-0058 was assessed on Escherichia coli acrAB::Tn903 (CB-219) and wild type (WT) Acinetobacter baumannii (ATCC BAA-747). For this purpose, the Minimum Inhibitory Concentration of MDN-0057 versus each strain was determined by broth microdilution as described in Clinical Laboratory Standards Institute publication M07-A9, Vol. 32, No. 2., “Methods for Dilution Antimicrobial Susceptibility Tests for Bacteria that Grow Aerobically; Approved Standard—Ninth Edition,” January 2012. Six-well plates containing Mueller Hinton II agar (5 mL per well) were prepared with MDN-0057 or MDN-0058 at concentrations 4-fold and 8-fold above the MIC. Cultures were grown to late log phase and spread on the agar. Plates were incubated at 37° C. and examined after one and two days of incubation.
Six to eight isolates from each species were obtained by re-streaking growth from the plates on antibiotic-free tryptic soy agar plates, and MICs of MDN-0057 versus the isolates were subsequently determined. MICs of the E. coli isolates were elevated at least 16-64-fold relative to their parent strain, CB-219.

S. aureus ATCC 29213 = experiment: Broth microdilution MIC; format: cell-based, Staphylococcus aureus
Method: as §1, §2, §3, §4, §5

[C-]#[N+]C(=C)C(Cc1ccc(OC)cc1)([N+]#[C-])C1CC(O)CCC1OC(C)=O (centres unmarked) [MDN-0059]
MIC (P. aeruginosa ATCC 27853): 16 µg/mL (≈ 43.4 µM) | MIC (A. baumannii 5973): 0.5 to 1 µg/mL

[C-]#[N+]C(=C)C(Cc1ccc(OC)cc1)([N+]#[C-])C1CC(O)C=CC1OC(=O)CO (centres unmarked) [MDN-0058]
MIC (P. aeruginosa 839): 1 to 4 µg/mL | MIC (P. aeruginosa ATCC 27853): 64 µg/mL (≈ 167 µM) | MIC (E. coli 219): 0.25 to 0.5 µg/mL | MIC (E. coli ATCC 25922): 16 µg/mL (≈ 41.8 µM) | MIC (A. baumannii 2443): 2 µg/mL (≈ 5.23 µM) | MIC (A. baumannii 2444): 0.25 to 1 µg/mL | MIC (A. baumannii 2446): <0.06 µg/mL | MIC (A. baumannii 2445): 2 to 8 µg/mL | MIC (A. baumannii 5973): 0.25 µg/mL (≈ 0.654 µM) | MIC (A. baumannii ATCC 19606): 2 to 8 µg/mL | MIC [1]: 1 to 16 µg/mL | MIC (K. pneumoniae 847): 64 µg/mL (≈ 167 µM) | MIC (K. pneumoniae 21): 0.5 µg/mL (≈ 1.31 µM) | MIC ([2]; E. coli_219, Micro RI, Isolate #1_4X): 0.25 µg/mL (≈ 0.654 µM) | MIC ([2]; E. coli_219, Micro RI, Isolate #2_8X): 0.25 µg/mL (≈ 0.654 µM) | MIC ([2]; E. coli_219, Micro RI, Isolate #3_4X): 0.25 µg/mL (≈ 0.654 µM) | MIC ([2]; E. coli_219, Micro RI, Isolate #4_4X): 0.25 µg/mL (≈ 0.654 µM) | MIC ([2]; E. coli_219, Micro RI, Isolate #5_8X): 0.25 µg/mL (≈ 0.654 µM) | MIC ([2]; E. coli_219, Parent): 0.25 to 0.5 µg/mL | MIC against S. aureus (No activity) (S. aureus ATCC 29213): 128 µg/mL (≈ 335 µM) | MIC (S. aureus ATCC 29213; S. aureus ATCC 29213, wild type): >128 µg/mL
